Experimental findings from PMC9693575, “Isopropyl Amino Acid Esters Ionic Liquids as Vehicles for Non-Steroidal Anti-Inflammatory Drugs in Potential Topical Drug Delivery Systems with Antimicrobial Activity” (International Journal of Molecular Sciences, 2022) are described below.

Data set [1] has as its system Staphylococcus epidermidis. Description: Disc diffusion antimicrobial susceptibility test, Staphylococcus epidermidis. The data set is classed as cell-based. Further details: key to Inhibition diameter: -: no growth of the organism. To be noted: for inhibition zone (in words): S. epidermidis, tested concentrations. The method, then: (§1) The plates were incubated for 24 h at 37 °C.
(In general: Agar diffusion results depend on both activity and mobility in agar.)

In a further data set the test system is Escherichia coli. Description: Disc diffusion antimicrobial susceptibility test, Escherichia coli. The class given is cell-based. Details: key to Inhibition diameter: -: no growth of the organism. The method, then:
as §1

In another data set the test system is Micrococcus Luteus. As to the kind of experiment: Disc diffusion antimicrobial susceptibility test, Micrococcus luteus. The data set is classed as cell-based. Further details: key to Inhibition diameter: -: no growth of the organism.
Data set [2] is described as follows: Thermogravimetric analysis (thermal stability). The method, then: The thermal stabilities of the obtained NSAIDs isopropyl ester amino acid salts were investigated. […] The beginning of thermal degradation was evaluated based on the value of onset of the TG curve, which occurs in the first phase of the process. […]
Thermogravimetric analysis (TG)
Thermogravimetric analysis was carried out using Netzsch Proteus Thermal Analy- […]
Samples of 5–8 mg were loaded in Al2O3 […]
ment was performed in an air atmosphere (25 cm3min−1) with nitrogen flow (10 cm3min−1) […]
Differential scanning calorimetry (DSC)
Phase transformation temperatures were determined on a PerkinElmer DSC-7 (Rot-gau, Germany). The samples of 3–5 mg were loaded on the aluminum pan with a crimped lid. Measurements were carried out in a nitrogen atmosphere (20 cm3 min-1). The rate of heating/cooling was 5°C min-1. […]
tained for 30 min inside the furnace, then cooled to 0°C to condition the sample and the crucible. After that, heating was conducted to the specified temperature, followed by cool-ing. Unless otherwise stated, two complete cycles of heating and cooling were performed.
The specified maximum temperature was individual for each compound, determined from TG analysis, and it was at least 10°C lower than the onset decomposition tempera-ture. Temperatures reported from DSC data are curve peaks, the melting points being endothermic upon heating and crystallization point being exothermic upon cooling. Lead, indium, tin, and zinc were used as standards to calibrate the temperature. Indium was used for enthalpy measurement calibration. […]

[3] abbreviates: solution transferred to disc 25 mg cm^−3.
Setting [4] is: solution transferred to disc 50 mg cm^−3.
[5] abbreviates: solution transferred to disc 100 mg cm^−3.
The mark [6] stands for this setting: solution transferred to disc 200 mg cm^−3.
The mark [7] stands for this setting: solution transferred to disc 400 mg cm^−3.
[8] abbreviates: solution transferred to disc 600 mg cm^−3.
Setting [9] is: solution transferred to disc 800 mg cm^−3.
The mark [10] stands for this setting: solution transferred to disc 1000 mg cm^−3.

On to `CC(C(=O)O)c1cccc(C(=O)c2ccccc2)c1.CC[C@H](C)[C@H](N)C(=O)OC(C)C` [[L-IleOiPr][KETO], L-isoleucine isopropyl ester ketoprofenate], for which the Inhibition diameter result in data set [1] (setting [3]) is “-”; in data set [1] (setting [4]), “-”; in data set [1] (setting [5]), “-”; in data set [1] (setting [6]), “-”; in data set [1] (setting [7]), 6.2 ± 0.1 mm; in data set [1] (setting [8]) it was 7.3 ± 0.2 mm. The Inhibition diameter in data set [1] (setting [9]) is recorded as 8.3 ± 0.1 mm; in data set [1] (setting [10]) it was 10.4 ± 0.2 mm; in the data set with Escherichia coli (setting [3]) it was “-”; in the data set on Escherichia coli (setting [4]), “-”; in the data set on Escherichia coli (setting [5]), “-”; with Escherichia coli (setting [6]), “-”. The Inhibition diameter result is given as “-” with Escherichia coli (setting [7]); “-” in the data set on Escherichia coli (setting [8]); “-” in the data set on Escherichia coli (setting [10]); “-” in the data set with Micrococcus Luteus (setting [3]); 6.3 ± 0.2 mm with Micrococcus Luteus (setting [4]); 6.6 ± 0.3 mm in the data set with Micrococcus Luteus (setting [5]). Moreover, the Inhibition diameter in the data set with Micrococcus Luteus (setting [6]) is 7.1 ± 0.2 mm; with Micrococcus Luteus (setting [7]), 7.3 ± 0.1 mm; in the data set on Micrococcus Luteus (setting [8]), 8.3 ± 0.2 mm; with Micrococcus Luteus (setting [9]) it was 8.4 ± 0.3 mm; in the data set on Micrococcus Luteus (setting [10]) it was 9.4 ± 0.2 mm.

On to `CC(C)OC(=O)[C@@H](N)[C@@H](C)O.COc1ccc2cc([C@H](C)C(=O)O)ccc2c1` [[L-ThrOiPr][NAP], L-threonine isopropyl ester naproxenate], for which, in data set [1], the “inhibition zone (in words)” value is on record as “no inhibition zone was observed”. In addition, the Inhibition diameter entry in data set [1] (setting [3]), in data set [1] (setting [4]), in data set [1] (setting [5]), in data set [1] (setting [6]), in data set [1] (setting [7]) and in data set [1] (setting [8]) was “-” each time. Further, the Inhibition diameter entry (in data set [1] (setting [9]); in data set [1] (setting [10]); in the data set with Escherichia coli (setting [3]); with Escherichia coli (setting [4]); in the data set on Escherichia coli (setting [5]); in the data set on Escherichia coli (setting [6])) was “-” throughout. The Inhibition diameter result with Escherichia coli (setting [7]) is “-”; in the data set with Escherichia coli (setting [8]), “-”; in the data set with Escherichia coli (setting [10]), “-”; with Micrococcus Luteus (setting [3]), 6.2 ± 0.1 mm; with Micrococcus Luteus (setting [4]), 6.6 ± 0.1 mm; with Micrococcus Luteus (setting [5]), 6.9 ± 0.1 mm. Moreover, the Inhibition diameter in the data set with Micrococcus Luteus (setting [6]) came out at 7.6 ± 0.1 mm; in the data set on Micrococcus Luteus (setting [7]), 8.5 ± 0.1 mm; in the data set on Micrococcus Luteus (setting [8]) it was 8.8 ± 0.2 mm; in the data set on Micrococcus Luteus (setting [9]) it was 9.6 ± 0.1 mm; in the data set on Micrococcus Luteus (setting [10]), 10.8 ± 0.5 mm. Also, the “TTGonset, the onset of the thermal degradation” value in data set [2] was 145.8 °C. The “TDTGmax, maximum decomposition temperature” value in data set [2] (DTG, air atmosphere, 10 °C min−1) turned out to be 295.3 °C.

As for `CC(C(=O)O)c1cccc(C(=O)c2ccccc2)c1.CC(C)OC(=O)C(N)C(C)C` (mixture of isomers) [[L-ValOiPr][KETO]], the Inhibition diameter result in data set [1] (setting [3]) is “-”; in data set [1] (setting [4]), “-”; in data set [1] (setting [5]), “-”; in data set [1] (setting [6]), “-”; in data set [1] (setting [7]), 6.2 ± 0.1 mm; in data set [1] (setting [8]) it was 6.3 ± 0.1 mm. Besides, the Inhibition diameter is given as 6.3 ± 0.2 mm in data set [1] (setting [9]); 6.9 ± 0.2 mm in data set [1] (setting [10]); “-” in the data set with Escherichia coli (setting [3]); “-” in the data set on Escherichia coli (setting [4]); “-” in the data set with Escherichia coli (setting [5]); 6.7 ± 0.3 mm with Escherichia coli (setting [6]). The Inhibition diameter in the data set with Escherichia coli (setting [7]) stood at 7.0 ± 0.2 mm; in the data set with Escherichia coli (setting [8]) it was 7.6 ± 0.3 mm; in the data set on Escherichia coli (setting [10]), 8.3 ± 0.4 mm; in the data set on Micrococcus Luteus (setting [3]) it was 6.3 ± 0.2 mm; in the data set on Micrococcus Luteus (setting [4]), 7.4 ± 0.1 mm; with Micrococcus Luteus (setting [5]), 8.5 ± 0.3 mm. In addition, the Inhibition diameter is on record as 9.1 ± 0.3 mm in the data set with Micrococcus Luteus (setting [6]), 10.3 ± 0.2 mm with Micrococcus Luteus (setting [7]), 11.7 ± 0.1 mm in the data set with Micrococcus Luteus (setting [8]) and 15.1 ± 0.2 mm with Micrococcus Luteus (setting [10]).

As for `CC(C(=O)O)c1cccc(C(=O)c2ccccc2)c1.CC(C)OC(=O)C(N)C(C)O` (mixture of isomers) [[L-ThrOiPr][KETO], L-threonine isopropyl ester ketoprofenate], the “inhibition zone (in words)” value in data set [1] is “no inhibition zone was observed”. The Inhibition diameter entry in data set [1] (setting [3]), in data set [1] (setting [4]), in data set [1] (setting [5]), in data set [1] (setting [6]), in data set [1] (setting [7]) and in data set [1] (setting [8]) was “-” each time. Besides, the Inhibition diameter result (in data set [1] (setting [9]); in data set [1] (setting [10]); with Escherichia coli (setting [3]); in the data set on Escherichia coli (setting [4]); in the data set with Escherichia coli (setting [5]); in the data set on Escherichia coli (setting [6])) was “-” each time. Further, the Inhibition diameter result in the data set on Escherichia coli (setting [7]), in the data set with Escherichia coli (setting [8]), in the data set with Escherichia coli (setting [10]), in the data set on Micrococcus Luteus (setting [3]), in the data set with Micrococcus Luteus (setting [4]) and with Micrococcus Luteus (setting [5]) was “-” each time. Moreover, the Inhibition diameter amounted to 7.4 ± 0.3 mm with Micrococcus Luteus (setting [6]); 9.6 ± 0.1 mm with Micrococcus Luteus (setting [7]); 14.3 ± 0.2 mm with Micrococcus Luteus (setting [8]); 15.4 ± 0.2 mm with Micrococcus Luteus (setting [9]); 17.4 ± 0.1 mm with Micrococcus Luteus (setting [10]).

In the case of `CC(C(=O)O)c1cccc(C(=O)c2ccccc2)c1.CSCCC(N)C(=O)OC(C)C` (mixture of isomers) [[L-MetOiPr][KETO], L-methionine isopropyl ester ketoprofenate], the Inhibition diameter result in data set [1] (setting [3]), in data set [1] (setting [4]), in data set [1] (setting [5]), in data set [1] (setting [6]), in data set [1] (setting [7]) and in data set [1] (setting [8]) was “-” throughout. In addition, the Inhibition diameter result in data set [1] (setting [9]) is given as “-”; in data set [1] (setting [10]), 7.4 ± 0.2 mm; in the data set on Escherichia coli (setting [3]) it was “-”; with Escherichia coli (setting [4]), “-”; in the data set on Escherichia coli (setting [5]), 7.3 ± 0.5 mm; in the data set with Escherichia coli (setting [6]) it was 8.0 ± 0.6 mm. Further, the Inhibition diameter with Escherichia coli (setting [7]) was 8.9 ± 0.5 mm; with Escherichia coli (setting [8]), 10.6 ± 0.7 mm; in the data set on Escherichia coli (setting [10]) it was 12.9 ± 0.4 mm; in the data set with Micrococcus Luteus (setting [3]), “-”; in the data set on Micrococcus Luteus (setting [4]) it was 7.2 ± 0.2 mm; in the data set on Micrococcus Luteus (setting [5]) it was 8.2 ± 0.2 mm. Also, the Inhibition diameter in the data set with Micrococcus Luteus (setting [6]) came to 8.5 ± 0.3 mm; in the data set with Micrococcus Luteus (setting [7]), 9.2 ± 0.1 mm; in the data set on Micrococcus Luteus (setting [8]), 9.6 ± 0.2 mm; with Micrococcus Luteus (setting [9]), 12.4 ± 0.2 mm; in the data set with Micrococcus Luteus (setting [10]), 14.3 ± 0.2 mm.
